The text below walks through data of patent US20250108023A1, “Products for Masking Bitterness” (The Third People's Hospital of Henan Province, priority 2023, published 2025).

Structures are written as SMILES.

The target in the assay is T1, sodium ion channel of Trpm5 bitter receptor (Mus musculus, UniProt Q9JJH7).
T1 construct: Put the removed tongue in a 2 ml EP tube, add 1-1.5 ml of 0.25% trypsin solution; from tissue; host or cells: cells dissociated with trypsin from mouse tongue
T1 sequence (Q9JJH7 1-1158): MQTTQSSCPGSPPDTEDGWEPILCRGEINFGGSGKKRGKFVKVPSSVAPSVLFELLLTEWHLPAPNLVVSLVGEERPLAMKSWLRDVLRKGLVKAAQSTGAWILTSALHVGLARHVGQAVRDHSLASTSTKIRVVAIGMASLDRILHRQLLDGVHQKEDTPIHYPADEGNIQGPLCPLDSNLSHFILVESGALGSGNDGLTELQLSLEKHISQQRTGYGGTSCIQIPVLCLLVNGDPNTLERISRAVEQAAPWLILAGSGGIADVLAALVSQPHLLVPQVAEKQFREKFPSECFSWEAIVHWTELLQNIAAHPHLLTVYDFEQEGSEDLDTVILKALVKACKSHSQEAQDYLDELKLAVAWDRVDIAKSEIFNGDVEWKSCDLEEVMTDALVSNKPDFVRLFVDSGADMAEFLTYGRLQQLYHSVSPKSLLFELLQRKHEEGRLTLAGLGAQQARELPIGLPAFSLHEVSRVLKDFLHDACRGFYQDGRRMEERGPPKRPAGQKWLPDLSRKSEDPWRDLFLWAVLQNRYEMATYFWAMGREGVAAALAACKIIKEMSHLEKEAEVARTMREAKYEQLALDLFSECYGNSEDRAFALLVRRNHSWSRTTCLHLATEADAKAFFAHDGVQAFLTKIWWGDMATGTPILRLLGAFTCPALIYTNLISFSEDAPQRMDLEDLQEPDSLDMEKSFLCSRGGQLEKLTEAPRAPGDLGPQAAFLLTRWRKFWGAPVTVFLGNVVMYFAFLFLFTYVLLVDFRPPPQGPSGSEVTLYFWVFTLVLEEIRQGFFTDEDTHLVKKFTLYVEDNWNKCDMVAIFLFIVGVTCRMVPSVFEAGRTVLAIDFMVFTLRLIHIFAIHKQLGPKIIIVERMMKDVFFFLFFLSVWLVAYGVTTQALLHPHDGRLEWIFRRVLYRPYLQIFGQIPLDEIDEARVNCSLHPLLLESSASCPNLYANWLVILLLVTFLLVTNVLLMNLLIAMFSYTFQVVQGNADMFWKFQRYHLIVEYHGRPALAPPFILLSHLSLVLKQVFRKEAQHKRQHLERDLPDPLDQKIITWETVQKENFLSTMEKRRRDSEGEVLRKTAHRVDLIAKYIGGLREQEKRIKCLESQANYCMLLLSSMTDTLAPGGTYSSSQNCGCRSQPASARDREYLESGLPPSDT
Kind of assay: Immunofluorescence experiment of sodium ion channels in mouse tongue cells stimulated with bitter agent. Type of assay: cell-based, mice. Conditions: for blocking effect on the sodium ion channel (result analysis in words): judged from change of sodium ion fluorescence after bitter drug.

The mark [1] stands for this setting: Bitterant 60 s (2% metronidazole solution).
[2] abbreviates: Bitterant 120 s (2% metronidazole solution).
Setting [3] is: Bitterant 180 s (2% metronidazole solution).
Setting [4] is: Initial (before addition of drug), sodium ion dye ENG-2 AM.

As for `CCCCC[C@H](O)CC(=O)CCc1ccc(O)c(OC)c1` [Gingerol, 6-gingerol], the “blocking effect on the sodium ion channel (result analysis in words)” value is given as “can block the sodium ion channel of Trpm5 bitter receptor”. Further, under “Addition of drugs”, the “average value of fluorescence brightness” value is listed as 25.244 and the “average value of fluorescence brightness, base number removed” value (from here on “average value … base number removed”) is recorded as −0.093. Further, under setting [1], the “average value of fluorescence brightness” value came out at 25.15 and the “average value … base number removed” value is on record as −0.187. Moreover, under setting [2], the “average value of fluorescence brightness” value turned out to be 25.137 and the “average value … base number removed” value is −0.2. Besides, under setting [3], the “average value of fluorescence brightness” value is 25.08 and the “average value … base number removed” value is recorded as −0.257. Besides, where the note is “Initial”, the “average value … base number removed” value was 0. For the same compound, the “average value of fluorescence brightness” value under setting [4] turned out to be 25.337.

Consider `COc1cc(C(=O)O)ccc1O` [Vanillic acid, 3-methoxy-4-hydroxybenzoic acid], for which the “blocking effect on the sodium ion channel (result analysis in words)” value is “have poor effects and do not have bitterness masking effect”. Also, where the note is “Addition of drugs”, the “average value of fluorescence brightness” value is 26.795 and the “average value … base number removed” value was −0.107. For the same compound, under setting [1], the “average value of fluorescence brightness” value came to 26.689 and the “average value … base number removed” value is −0.213. Under setting [2], the “average value of fluorescence brightness” value came to 26.699 and the “average value … base number removed” value was −0.203. Under setting [3], the “average value of fluorescence brightness” value is reported as 26.725 and the “average value … base number removed” value is on record as −0.177. The “average value … base number removed” value (Initial) was 0. Also, the “average value of fluorescence brightness” value under setting [4] was 26.902.
